Test results taken from patent publication US20070254891A1, “Crystalline forms of 4-(2-fluorophenyl)-6-methyl-2-(piperazin-1-yl)thieno[2,3-d]pyrimidine” (Dynogen Pharmaceuticals, Inc., priority 2006, published 2007).

Key:
[1] = system: acetic acid-induced colonic hypersensitivity; experiment: Visceromotor response to colorectal distension in acetic acid-sensitized rats
Procedure: The visceromotor behavioral response to colorectal distension was measured by counting the number of abdominal contractions recorded by a strain gauge sutured onto the abdominal musculature as described in Gunter et al., Physiol. […] A 5 cm latex balloon catheter inserted via the anal canal into the colon was used for colorectal distensions. Constant pressure tonic distensions were performed in a graded manner (15, 30 or 60 mmHg) and were maintained for a period of 10 min and the numbers of abdominal muscle contractions were recorded to measure the level of colonic sensation. A 10 min recovery was allowed between distensions.
J. Physiol. […] In the present study, a low concentration of acetic acid (1.5 ml, 0.6%) was administered intracolonically to sensitize the colon without causing histological damage to the colonic mucosa as described in previous studies (Gunter et al., supra).
Injection volume was 0.2 mL using 100% propylene glycol as the vehicle. Three consecutive colorectal distensions at 15, 30 or 60 mmHg applied at 10-min intervals were recorded. Visceromotor responses were evaluated as the number of abdominal muscle contractions recorded during the 10-min periods of colorectal distension.
Adult male rats were used in the study. […] Specifically, rats were anesthetized with Isoflurane (2%) and were instrumented with a strain gauge force transducer for recording of abdominal muscle contractions. A latex balloon and catheter were inserted 11 cm into the colon. The animals were allowed a 30-min period to completely recover from the anesthesia and were then subjected to intracolonic infusion of acetic acid (1.5 mL, 0.6%). An additional 30-min period was allowed for sensitization of the colon. […] The protocol for colorectal distension was initiated 30-min post drug administration. After a basal reading of the number of abdominal contractions with the balloon inserted but not distended, three consecutive 10-min lasting colorectal distensions at 15, 30, and 60 mmHg were applied at 10-min intervals. Colorectal sensitivity was evaluated by counting the number of reflex abdominal contractions (i.e. the visceromotor response) observed within each distension period.
The visceromotor behavioral response to colorectal distension was measured by counting the number of abdominal contractions recorded by a strain gauge sutured onto the abdominal musculature as previously described Gunter et al., referenced above. Colorectal distensions were carried out utilizing a 5 cm latex balloon catheter inserted into the colon via the anal canal. Constant pressure tonic distensions were performed in a graded manner, i.e., the pressure was increased to the desired level of 15, 30, or 60 mmHg and then maintained for a period of 10 minutes during which the number of abdominal contractions were recorded to measure the level of colonic sensation. Ten minute recovery periods were allowed following each distension.

[2] = system: small intestinal transit; experiment: Small Intestinal Transit Rodent Model (charcoal meal); assay type: in vivo, rat; conditions: for Small intestinal transit, Mean (% of total length): 15 min test period
Procedure: Following an overnight fast, rats were brought to the laboratory in their home cages and received an i.p. injection of one of the following: […] Control rats received no treatment. The treated rats were placed back in the home cages and after 30 min, were fed a 2 mL charcoal meal via an oral gavage. Small intestinal transit was measured following 15 min test-period. Each rat was placed briefly in a glass chamber with IsoFlo for anesthesia and sacrificed. The stomach and the small intestine were removed and the total length of the small intestine was measured. Transit was then measured as the distance that the charcoal meal had traveled along the small intestine and expressed as % of the total length. Animals were randomly assigned to experimental groups and experiments were performed as illustrated in Table 11. Small intestinal transit in rats was investigated by the passage of a charcoal meal along the small intestine during a defined time period (15-min). The animals were deprived of food for 12-16 hrs prior to the experiments. Rats were given a charcoal meal (a mixture of charcoal, gum arabic, and distilled water) as a 2 mL oral gavage and were sacrificed after a 15-min test period. The distance traveled by the charcoal meal was quantified as a percent of the small intestinal length, using the following equation: Transit (%)=cm traveled by meal/cm total small intestinal length×100 […]

[3] = system: stress-induced accelerated colonic transit; experiment: Water avoidance stress (WAS) model of increased colonic transit, fecal pellet output; assay type: in vivo, rat
Excerpt: At the end of the 1-hour stress period, the fecal pellets were counted and recorded. WAS causes an acceleration of colonic transit, which can be quantified by counting the number of fecal pellets, produced during the stress procedure. Rats were placed for 1-hour into a stress chamber onto a raised platform 7.5 cm×7.5 cm×9 cm (L×W×H) in the center of a stress chamber filled with room temperature water 8 cm in depth. The stress chamber was constructed from a rectangular plastic tub (40.2×60.2×31.2 cm). […] Ondansetron was supplied from APIN Chemicals LTD. […] MCI-225 was provided by Mitsubishi Pharma Corp. All drugs were dissolved in a vehicle of 100% propylene glycol (1,2-propanediol) by sonicating for a period of 10 minutes. Propylene glycol was obtained from Sigma Chemical Co. […] All drugs and the vehicle were administered as an i.p. injection in a volume of 0.2 mL.

[4] = system: retching and vomiting induced by cisplatin; experiment: Cisplatin-induced emesis in the ferret; assay type: in vivo, ferret (Mustela putorius furo)
Procedure: Following administration of the cisplatin and either MCI-225, ondansetron or vehicle alone, the occurrence of retching and vomiting was monitored for a period of 6 hours. […] Vomiting was defined as the forceful oral expulsion of upper gastrointestinal contents. The latency of the retching or vomiting response and the number of episodes were recorded for each animal and summarized for each experimental group (Wright et al., Infect. […] Following one hour of acclimation to the observation cage, ferrets received an intraperitoneal (i.p.) injection of cisplatin (5 mg/kg in 5 mL) followed in about 2 minutes by i.p. injection of a single dose of MCI-225 or ondansetron (Rudd and Naylor, Eur. J. Pharmacol., 322: 79-82 (1997)). […] Each animal received a single-dose drug treatment. In addition, three animals received an initial dose (30 mg/kg i.p.) and a second MCI-225 injection (30 mg/kg i.p.) 180 minutes following the initial dose. […] All groups were randomized.

CNCCC(Oc1ccccc1OC)c1ccccc1 (stereo not drawn) [Nisoxetine]
Behavior in the home cage during the experiments ([1]; 30 mg/kg i.p.): increased exploratory behavior | Visceromotor response to colorectal distension ([1]; 3, 10 or 30 mg/kg i.p.): no significant effect | Small intestinal transit, Mean (% of total length) ([2]; 3 mg/kg i.p.): 40.3% | Small intestinal transit, Mean (% of total length) ([2]; 10 mg/kg i.p.): 38.6% | Charcoal meal completely retained in the stomach ([2]; 30 mg/kg i.p.): 4 out of 5 | Effect on small intestinal transit ([2]; 30 mg/kg i.p.): almost completely inhibited the transit | Small intestinal transit, Mean (% of total length) ([2]; 30 mg/kg i.p.): 4.7% | Effect on small intestinal transit ([2]; 3 or 10 mg/kg i.p.): tendency to decrease | WAS-induced fecal pellet output during 1 hour ([3]; 3, 10 or 30 mg/kg i.p.): reduced by all doses | Fecal pellets produced during WAS compared to the vehicle treated group ([3]; 10 and 30 mg/kg i.p.): significantly fewer

Cc1nccn1CC1CCc2c(c3ccccc3n2C)C1=O (stereo not drawn) [Ondansetron, reference compound]
Number of emetic events induced by cisplatin ([4]; 5 mg/kg and 10 mg/kg i.p.): dose-dependently reduced | Latency ([4]; 5 mg/kg i.p.): 288 ± 4 min | Retches (360 min) ([4]; 5 mg/kg i.p.): 11.2 ± 7.0 | Total Events ([4]; 5 mg/kg i.p.): 11.5 ± 7.2 | Vomits (360 min) ([4]; 5 mg/kg i.p.): 0.3 ± 0.2 | Latency ([4]; 10 mg/kg i.p.): 313 ± 32 min | Retches (360 min) ([4]; 10 mg/kg i.p.): 2.4 ± 1.6 | Total Events ([4]; 10 mg/kg i.p.): 2.4 ± 1.6 | Vomits (360 min) ([4]; 10 mg/kg i.p.): 0.0 ± 0.0 | Responses to moderate (30 mmHg) and high (60 mmHg) intraluminal pressure ([1]; 10 mg/kg i.p.): did not abolish the responses | Behavioral activity of the rats ([1]; 1, 5 or 10 mg/kg i.p.): No significant changes | Number of abdominal contractions (visceromotor response) ([1]; 1, 5 or 10 mg/kg i.p., 15, 30, 60 mmHg): dose-dependent decrease | Small intestinal transit, Mean (% of total length) ([2]; 1 mg/kg i.p.): 27.6% | Small intestinal transit, Mean (% of total length) ([2]; 5 mg/kg i.p.): 32.1% | Small intestinal transit, Mean (% of total length) ([2]; 10 mg/kg i.p.): 18.4% | Effect on small intestinal transit ([2]; 1, 5 or 10 mg/kg i.p.): significant reduction | Stress-induced fecal pellet output during 1 hour of WAS ([3]; 1, 5 and 10 mg/kg i.p.): dose-dependent inhibition
